Results: paper PMC10140934, “In Vitro and In Silico Studies on Angiotensin I-Converting Enzyme Inhibitory Peptides Found in Hydrophobic Domains of Porcine Elastin” (Molecules, 2023)
Residues, ends and D or L forms follow the SMILES beside them. No end group written: not given here.

Target: T1, ACE (from rabbit lung) (Oryctolagus cuniculus, UniProt P12822)
T1 construct: ACE (20 mU/mL, from rabbit lung) was used for the enzyme solution; from tissue; host or cells: rabbit lung
T1 sequence (P12822 34-1310): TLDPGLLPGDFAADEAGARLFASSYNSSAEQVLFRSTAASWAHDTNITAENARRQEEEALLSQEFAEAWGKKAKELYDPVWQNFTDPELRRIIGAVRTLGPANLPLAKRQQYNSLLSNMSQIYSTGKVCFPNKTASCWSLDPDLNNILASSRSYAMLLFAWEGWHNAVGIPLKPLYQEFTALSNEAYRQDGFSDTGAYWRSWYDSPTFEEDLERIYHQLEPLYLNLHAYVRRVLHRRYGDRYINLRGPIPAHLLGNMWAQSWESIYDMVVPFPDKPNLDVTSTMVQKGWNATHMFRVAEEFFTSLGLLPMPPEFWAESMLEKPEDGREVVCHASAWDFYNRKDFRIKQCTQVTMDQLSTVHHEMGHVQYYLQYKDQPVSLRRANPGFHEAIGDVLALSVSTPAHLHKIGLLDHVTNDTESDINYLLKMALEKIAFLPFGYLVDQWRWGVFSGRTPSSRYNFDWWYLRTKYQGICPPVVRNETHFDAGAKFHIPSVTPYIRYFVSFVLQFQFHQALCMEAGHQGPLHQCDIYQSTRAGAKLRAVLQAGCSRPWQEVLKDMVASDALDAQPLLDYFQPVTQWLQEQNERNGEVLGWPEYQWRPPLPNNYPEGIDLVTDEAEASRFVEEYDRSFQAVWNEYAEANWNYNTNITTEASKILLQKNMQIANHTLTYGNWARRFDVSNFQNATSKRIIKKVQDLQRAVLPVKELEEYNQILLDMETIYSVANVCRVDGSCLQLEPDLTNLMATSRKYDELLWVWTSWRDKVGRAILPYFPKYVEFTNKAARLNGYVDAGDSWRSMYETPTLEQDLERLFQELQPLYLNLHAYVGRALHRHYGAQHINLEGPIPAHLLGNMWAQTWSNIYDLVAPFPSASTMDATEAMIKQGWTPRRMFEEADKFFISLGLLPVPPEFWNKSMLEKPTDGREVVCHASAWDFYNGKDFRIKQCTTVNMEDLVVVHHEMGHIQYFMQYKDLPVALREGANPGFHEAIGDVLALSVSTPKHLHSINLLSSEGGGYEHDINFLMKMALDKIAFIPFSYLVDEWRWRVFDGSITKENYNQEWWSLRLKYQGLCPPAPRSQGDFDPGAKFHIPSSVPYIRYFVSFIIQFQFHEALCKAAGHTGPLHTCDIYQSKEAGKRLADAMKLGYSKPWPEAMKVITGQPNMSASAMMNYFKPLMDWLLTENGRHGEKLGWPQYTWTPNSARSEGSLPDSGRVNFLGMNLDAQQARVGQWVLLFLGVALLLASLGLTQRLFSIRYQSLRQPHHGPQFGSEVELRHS
Test: Assay of ACE inhibitory activity (HHL substrate, o-phthalaldehyde fluorescence)
Type: biochemical
Conditions: pH 8.3, 37 °C, n = 3
Method: The ACE inhibitory activity of newly synthesized peptides was measured under the following condition by using Nakano et al.’s method. ACE (20 mU/mL, from rabbit lung) was used for the enzyme solution and 100 mM hippuryl-histidyl-leucine (HHL) was used for the substrate solution. Each solution was prepared in 0.1 M HEPES buffer (pH 8.3, 0.3 M NaCl, 0.01% Triton-X). Both enzyme solution (25 μL) and sample solution (20 μL) were preincubated at 37 °C for 5 min. A total of 100 mM HHL substrate solution (25 μL) was added and incubated at 37 °C for 30 min. The reaction was stopped by the addition of 100 mM NaOH solution (25 μL), followed by the addition of 1% o-phthalaldehyde in methanol (25 μL) and maintained at room temperature for 20 min. Next, 100 mM HCl (25 μL) was added and further maintained at room temperature for 10 min. The amount of His-Leu cleaved from the substrate by ACE was determined by measuring the fluorescence intensity of the product reacted with o-phthalaldehyde (excitation wavelength 370 nm, emission wavelength 460 nm) in a microplate reader. ACE inhibitory activity was calculated by the following formula:a ACE inhibitory activity (%) = [1 − (a − c)/(b − d)] × 100(1) where a is the fluorescence intensity in the presence of both ACE and the inhibitor, b is the fluorescence intensity in the presence of ACE without the inhibitor, c is the fluorescence intensity in the presence of the inhibitor without ACE, and d is the fluorescence intensity in the absence of both ACE and the inhibitor. ACE inhibitory activity was expressed by IC50 value: the concentration of inhibition required to inhibit 50% of the ACE activity, and each IC50 value was measured three times.

Question: Which IC50 does the source give for `C[C@H](NC(=O)CN)C(=O)N1CCC[C@H]1C(=O)O` [GAP] (H-Gly-Ala-Pro-OH) here?
Answer: Its IC50 is 35 µM.

Question: Which IC50 does the source give for `C[C@@H](O)[C@H](N)C(=O)N[C@@H](CCCNC(=N)N)C(=O)N1CCC[C@H]1C(=O)O` [TRP] (H-Thr-Arg-Pro-OH) here?
Answer: Its IC50 is 1.3 µM.

Question: Which IC50 does the source give for `CC(C)[C@H](NC(=O)CN)C(=O)NCC(=O)O` [GVG] (H-Gly-Val-Gly-OH) here?
Answer: The IC50 was 369 µM.

Question: With `CC(C)C[C@H](NC(=O)CN)C(=O)NCC(=O)O` [GLG] (H-Gly-Leu-Gly-OH) as the compound, how does the IC50 read?
Answer: Its IC50 is 485 µM.

Question: Which IC50 does the source give for `CC(C)[C@H](N)C(=O)N[C@@H](C)C(=O)O` [VA] (H-Val-Ala-OH) here?
Answer: The IC50 was 326 µM.

Question: `C[C@H](N)C(=O)N1CCC[C@H]1C(=O)O` [AP] (H-Ala-Pro-OH) was tested. Which IC50 did it give?
Answer: Its IC50 is 230 µM.

Question: `CC(C)[C@H](N)C(=O)N[C@@H](C)C(=O)N1CCC[C@H]1C(=O)O` [VAP] (H-Val-Ala-Pro-OH) was tested. Which IC50 did it give?
Answer: Its IC50 is 1 µM.

Question: For `CC(C)[C@H](N)C(=O)N[C@@H](CO)C(=O)N1CCC[C@H]1C(=O)O` [VSP] (H-Val-Ser-Pro-OH), which IC50 is on record?
Answer: The IC50 was 10.4 µM.

Question: How did the IC50 turn out when VAPGVG [VAPGVG] was run?
Answer: Its IC50 is 906 µM.
